Laboratory results reported in US12409169B2, “Composition comprising clay mineral complex for prevention, alleviation, and treatment of inflammatory bowel disease, preparation method for composition, and method for alleviation and treatment for inflammatory bowel disease” (Korea Institute Of Geoscience And Mineral Resources, priority 2019, dated 2025).
Values joined by “and” are separate entries in the source; they are usually repeats but may differ in a detail not shown here. Equal values may be shown once. Read-outs that look alike come from different tables or passages of the source.

Legend:
[1] = pharmacokinetic analysis after oral administration in SD rats; type: in vivo; conditions: 10 mg/kg based on vactosertib
Description: In order to confirm a change in plasma concentration in actual oral administration of the bentonite/vactosertib complex, a pharmacokinetic analysis test was performed using SD rats of about 7 weeks of age. The existing vactosertib powder, an aqueous solution dissolved with the vactosertib powder in a pH 3 buffer solution, and the bentonite/vactosertib complex were used as samples and a dose was set to 10 mg/kg based on the drug (that is, vactosertib) amount. Each sample was orally administered in rats and then the blood was collected by time, and preprocessed to analyze a plasma drug concentration.

[2] = system: ulcerative colitis mouse model induced with DSS; assay: histopathological severity scores in ulcerative colitis mouse model induced with DSS; type: in vivo, C57BL/6 mice; conditions: DSS mice, Dunn's test
Description: Animal tests were performed to confirm anti-inflammatory, anti-crypt cell damage, anti-ulcer, anti-edema, and anti-fibrosis effects of a vactosertib/bentonite complex using a mouse model of ulcerative colitis as one of inflammatory bowel diseases. C57BL/6 mice were selected as test animals, and in order to induce ulcerative colitis, a cycle in which an inflammation inducing substance, DSS was added in drinking water and supplied for 7 days, and then normal drinking water was supplied for 14 days was repeated. Such an inflammation inducing cycle was repeated 3 times to induce chronic inflammation, ulcer and fibrous conditions in the large intestine. To test animal groups except for control groups, from 3 weeks after a first inflammation inducing cycle was elapsed, bentonite, vactosertib, or a vactosertib/bentonite complex was administered twice a day (10 am, 4 pm), 5 days a week, and for total 6 weeks. The bentonite per 1 kg of converted mouse weight was administered with 106.8 mg, the vactosertib was administered with 20.0 mg, and the complex was administered with 126.8 mg. At this time, as the vactosertib/bentonite complex, the complex prepared in Test Example 5 was used. For each test group used in ulcerative colitis animal tests, inflammation inducing substances, test substances, doses of the test substances, and the number of test animals were shown in Table 7 below.
C57BL/6 mice used in the test were supplied from the Orient Bio Gapyeong Center (699-13, Mokdong-ri, Buk-yeon, Gapyeong-gun, Gyeonggi-do), and about 6-week-old during obtaining. For about 7 days after obtaining, the rats were quarantined and purified and then healthy animals were used for the test. When the induced material was administered, the test animals were about 8-week-old, and 52 mice were used. The test animals were bred in the 2nd floor of Clean Animal Room, Bioscience Research Institute, Research Institute of Medical Science at Inha University, and circulated in at least 10 times/hour and bred under conditions of a temperature of 22-4° C., relative humidity of 50±20%, and illuminance of 150 to 300 Lux of lighting on for 12 hours (lighting: 08:00 to 20:00). A radiation solid feed (FeedLab GMO Free Rodent Diet GF2005) for rodents was free-taken using a feeder and water sterilized by an ultraviolet-ray flowing water sterilizer and high-pressure vapor after reverse osmosis was free-taken using a polysulfonate-made drinking water bottle (300 ml).
In order to induce ulcerative colitis, 2% DSS was added in drinking water of mice and continuously supplied for first 7 days of every test cycle (3 weeks). The test substances were orally administered 2 times a day, 5 days a week, and for a total of 6 weeks at the same time of second DSS induction (FIG. 14). […]
In order to evaluate a treatment effect of test substances on ulcerative colitis, after the end of the test, the animal was anesthetized, opened, and bled and then a histopathological test was performed for each individual. Histopathological findings were subdivided and scored into severity changes of inflammation, crypt cell damage, ulcer, edema, and fibrosis as shown in Table 8 below. […]
Statistical analysis was performed using Graphpad Prism version 8.01, and a minimum unit of significance was set to p<0.05. Since all measured histopathological indexes were nonparametric data, the indexes were represented by a median, 25% to 75% values (in the box), and minimum-maximum values (both ends) in the graph (FIGS. 15 to 20). […]

[3] = adsorption rate of vactosertib onto bentonite; type: physicochemical; conditions: vactosertib 0.4 mg/ml, bentonite 0.5 mg/mL, pH 1
Description: The adsorption rates of vactosertib and bentonite according to the pH of a solvent were evaluated. At this time, considering that the vactosertib was not dissolved in neutral, but stated to be dissolved in about 1 mg/mL from pH 3, a test was performed by setting a reaction pH to pH 1, pH 2, and pH 3. First, 10 mg/mL of the vactosertib was dissolved in a 0.1 N hydrochloric acid aqueous solution and diluted with a hydrochloric acid aqueous solution or a phosphate buffer solution (pH 1: 0.1 N hydrochloric acid aqueous solution, pH 2, pH 3: phosphate buffer solution) corresponding to each pH to adjust the concentration to 1 mg/mL. […] Thereafter, a drug concentration of a supernatant obtained by centrifugation (3,000 rpm, 5 minutes) was analyzed. Through this, the drug amount adsorbed onto the bentonite was indirectly calculated as shown in Equation 1 by removing the remaining drug amount in the supernatant from the entirely applied drug (vactosertib) to calculate an adsorption rate. […] In addition, a difference in adsorption rate according to the concentration of vactosertib was measured. […] In addition, a difference in adsorption rate according to an absolute concentration was measured.

interleukin 6 (IL-6) = assay: immunohistochemical IL-6 staining of large intestine tissue in DSS ulcerative colitis mouse model; type: in vivo, C57BL/6 mice; conditions: DSS 2% mice
Description: Animal tests were performed to confirm anti-inflammatory, anti-crypt cell damage, anti-ulcer, anti-edema, and anti-fibrosis effects of a vactosertib/bentonite complex using a mouse model of ulcerative colitis as one of inflammatory bowel diseases. C57BL/6 mice were selected as test animals, and in order to induce ulcerative colitis, a cycle in which an inflammation inducing substance, DSS was added in drinking water and supplied for 7 days, and then normal drinking water was supplied for 14 days was repeated. Such an inflammation inducing cycle was repeated 3 times to induce chronic inflammation, ulcer and fibrous conditions in the large intestine. […]
In order to observe an immunohistochemical change of a large intestine tissue, a tissue fixed to a 10% neutral buffer formalin solution was sliced, attached to a coating slide, and deparaffinized, and then stained, and IHC of reacting with antibodies IL-6 (Interleukin-6), α-SMA ((α-smooth muscle actin), and TGF-β (transforming growth factor beta) on each slide was requested to an external institute (Notus) and the test was performed. In an individual-specific tissue slide, three constant zones were specified and imaged 100 times, a stained portion to the total area was measured, and a mean value was calculated (Zen 2.3 blue edition, Carl Zeiss, Germany). […]

[4] = elution test (drug release through semi-permeable membrane); type: physicochemical
Description: An elution test of vactosertib was performed to confirm a change in which the vactosertib was adsorbed onto bentonite and then released. At this time, in order to predict the drug release from the upper digestive tract and the lower digestive tract, the elution was performed under different pH conditions. To this end, the test was performed by using a 0.1 N HCl solution (pH 1.2), a 50 mM acetate buffer solution (pH 4.5), and a 50 mM phosphate buffer solution (pH 7.4) as eluates, respectively. At this time, in all the eluates, Tween80 was dissolved and used at a concentration of 0.1% to impart a sufficient elution environment of vactosertib. The vactosertib powder and the bentonite/vactosertib complex were formed to a dispersion to be 1 mg/mL based on the vactosertib concentration and 0.3 mL thereof was sealed in a semi-permeable membrane and then put in 30 mL of each eluate to perform the elution. Thereafter, each eluate was collected by 0.2 mL for each predetermined time, a drug concentration was analyzed to compare elution rates.

Row | AUCinf [1] | AUClast [1] | Cmax [1] | Tmax [1] | Tmax ([1]; listed as vactosertib aqueous solution) | half-life ([1]; SD, rat, plasma, po, 10 mg/kg) | Cmax ([1]; SD, rat, plasma, po, 10 mg/kg, read-out: maximum plasma concentration Cmax) | Adsorption rate [3] | t1/2 [1] | elution rate ([4]; 0.1 N HCl solution (pH 1.2), 0.1% Tween80) | elution rate ([4]; at a higher pH than pH 1.2) | Structure (SMILES) | median of inflammation index compared with positive control group (G2) ([2]; FIG. 15) | median of crypt cell damage index compared with positive control group (G2) ([2]; FIG. 16) | median of ulcer index compared with positive control group (G2) ([2]; FIG. 17) | median of fibrosis index compared with positive control group (G2) ([2]; FIG. 19) | median of summed severity scores (except fibrosis) compared with positive control group (G2) ([2]; FIG. 20) | reduction of IL-6 staining area as compared with G2 group (interleukin 6 (IL-6))
1 | 111.97 ± 33.28 µg·min/mL | 111.73 ± 33.05 µg·min/mL | 2770 ± 550 ng/mL | 15 ± 0 min | 15 min and 15 ± 0 min | 45.9 ± 6.84 min | 2770 ± 550 ng/mL |  |  |  |  | Cc1cccc(-c2[nH]c(CNc3ccccc3F)nc2-c2ccc3ncnn3c2)n1 [Vactosertib aqueaous solution] |  |  |  |  |  | 
2 |  |  |  |  |  |  |  | 28.0 ± 0.8% |  |  |  | Cc1cccc(-c2[nH]c(CNc3ccccc3F)nc2-c2ccc3ncnn3c2)n1 [vactosertib, N-((4-([1,2,4]triazolo[1,5-a]pyridine-6-yl)-5-(6-methylpyridin-2-yl)-1H-imidazol-2-yl)methy 1)-2-fluoroaniline] | slightly low | low in a median of a crypt cell damage index, but had no statistical significance | low in a median of an ulcer index, but had no statistical significance | slightly low | low in a median of an ulcer index, but had no statistical significance | 23.0%
3 | 45.46 ± 27.67 µg·min/mL | 44.65 ± 28.60 µg·min/mL | 610 ± 570 ng/mL | 67.5 ± 75 min |  |  |  |  | 51.96 ± 21.93 min | rapidly eluted | significantly decreased | Cc1cccc(-c2[nH]c(CNc3ccccc3F)nc2-c2ccc3ncnn3c2)n1 [Vactosertib powder] |  |  |  |  |  | 
